Laboratory results: patent publication US11000033B2, “Ketone or oxime compound, and herbicide” (NISSAN CHEMICAL CORPORATION, priority 2014, dated 2021)

Key:
Alopecurus myosuroides = test: Test Example 4: herbicidal effect by soil treatment (symbol J); assay type: in vivo; settings: application herbicide amount 320 g/ha
Method in brief: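 Seeds were sown in sterilized diluvial soil, covered with about 1.5 cm of soil, and the soil surface was sprayed with a water-diluted emulsion of the compound at a predetermined rate. Plants grew in a greenhouse at 25° C. to 30° C.; effects were scored visually 3 weeks after application.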

Leptochloa chinensis = test: Test Example 3: herbicidal effect by foliage application, Wagner pot (symbol D); assay type: in vivo; settings: application herbicide amount 320 g/ha
Method in brief: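 Scoring took place 3 weeks after application, using fixed criteria. Plants had been raised from seed for 14 days at 25 to 30 °C in submerged alluvial soil before a diluted emulsion of the test compound was sprayed uniformly on the leaves.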

rapeseed = test: Test Example 4: effect on crop by soil treatment (symbol g); assay type: in vivo; settings: application herbicide amount 320 g/ha
Method in brief: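 Grown at 25° C. to 30° C. in a greenhouse, the crops came from seed sown spot-wise in sterilized diluvial soil under roughly 1.5 cm of covering soil.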

## CON=C(C)CC1CC(O)=C(c2c(F)cc(-c3ccccc3)cc2OC)C1=O (centres unmarked) [6-107]
Alopecurus myosuroides
  Herbicidal effect grade, J: Alopecurus myosuroides: 5 (Herbicidal ratio of 90% or more (almost completely withered))
other
  melting point: 175 to 177 °C
Leptochloa chinensis
  herbicidal effect on D (Leptochloa chinensis), grade 0-5: 5 (Herbicidal ratio of 90% or more (almost completely withered))
rapeseed
  Effect on crop grade, g: rapeseed: 4 (Herbicidal ratio of 70% or higher and lower than 90%)

## CON=C(C)CC1CC(O)=C(c2c(C)cc(Br)cc2OC)C1=O (centres unmarked) [6-076, 2-(4-bromo-2-methoxy-6-methylphenyl)-3-hydroxy-5-{2-(methoxyimino)propyl}cyclopent-2-enone]
Alopecurus myosuroides
  J: Alopecurus myosuroides, herbicidal effect grade: 0 (Herbicidal ratio of 5% or lower (almost no effect))
other
  melting point: 150 to 153 °C
Leptochloa chinensis
  herbicidal effect on D (Leptochloa chinensis), grade 0-5: 5 (Herbicidal ratio of 90% or more (almost completely withered))
rapeseed
  g: rapeseed, effect on crop grade: 2 (Herbicidal ratio of 20% or higher and lower than 40%)

## CON=C(C)CC1CC(O)=C(c2c(F)cc(Br)cc2OC)C1=O (centres unmarked) [6-096]
Alopecurus myosuroides
  Herbicidal effect grade, J: Alopecurus myosuroides: 3 (Herbicidal ratio of 40% or higher and lower than 70%)
other
  melting point: 157 to 159 °C
Leptochloa chinensis
  herbicidal effect on D (Leptochloa chinensis), grade 0-5: 4 (Herbicidal ratio of 70% or higher and lower than 90%)
rapeseed
  Effect on crop grade, g: rapeseed: 0 (Herbicidal ratio of 5% or lower (almost no effect))

## CON=C(C)CC1CC(O)=C(c2c(C)cc(OC)cc2C)C1=O (centres unmarked) [6-055]
Alopecurus myosuroides
  J: Alopecurus myosuroides, herbicidal effect grade: 4 (Herbicidal ratio of 70% or higher and lower than 90%)
other
  melting point: 141 to 143 °C
Leptochloa chinensis
  herbicidal effect on D (Leptochloa chinensis), grade 0-5: 5 (Herbicidal ratio of 90% or more (almost completely withered))
rapeseed
  g: rapeseed, effect on crop grade: 0 (Herbicidal ratio of 5% or lower (almost no effect))

## CON=C(C)CC1CC(O)=C(c2c(C)cc(C3CC3)cc2C)C1=O (centres unmarked) [6-050]
Alopecurus myosuroides
  J: Alopecurus myosuroides, herbicidal effect grade: 4 (Herbicidal ratio of 70% or higher and lower than 90%)
other
  melting point: 170 to 178 °C
Leptochloa chinensis
  herbicidal effect on D (Leptochloa chinensis), grade 0-5: 5 (Herbicidal ratio of 90% or more (almost completely withered))
rapeseed
  g: rapeseed, effect on crop grade: 2 (Herbicidal ratio of 20% or higher and lower than 40%)

## CON=C(C)CC1CC(O)=C(c2c(C)cc(-c3ccccc3)cc2OC)C1=O (centres unmarked) [6-099]
Alopecurus myosuroides
  Herbicidal effect grade, J: Alopecurus myosuroides: 5 (Herbicidal ratio of 90% or more (almost completely withered))
other
  melting point: 175 to 177 °C
Leptochloa chinensis
  herbicidal effect on D (Leptochloa chinensis), grade 0-5: 5 (Herbicidal ratio of 90% or more (almost completely withered))
rapeseed
  Effect on crop grade, g: rapeseed: 5 (Herbicidal ratio of 90% or more (almost completely withered))

## CON=C(C)CC1CC(O)=C(c2c(C)cccc2C)C1=O (centres unmarked) [6-112]
Alopecurus myosuroides
  Herbicidal effect grade, J: Alopecurus myosuroides: 5 (Herbicidal ratio of 90% or more (almost completely withered))
other
  melting point: 167 to 170 °C
Leptochloa chinensis
  herbicidal effect on D (Leptochloa chinensis), grade 0-5: 5 (Herbicidal ratio of 90% or more (almost completely withered))
rapeseed
  Effect on crop grade, g: rapeseed: 0 (Herbicidal ratio of 5% or lower (almost no effect))

## COc1cc(Br)cc(F)c1C1=C(O)CC(CC(C)=O)C1=O (centres unmarked) [7-029]
Alopecurus myosuroides
  Herbicidal effect grade, J: Alopecurus myosuroides: 1 (Herbicidal ratio of 5% or higher and lower than 20%)
Leptochloa chinensis; Table 24
  D (Leptochloa chinensis) herbicidal effect grade: 4 (Herbicidal ratio of 70% or higher and lower than 90%)
rapeseed
  Effect on crop grade, g: rapeseed: 0 (Herbicidal ratio of 5% or lower (almost no effect))

## CC(=O)CC1CC(O)=C(c2c(C)cc(-c3ccc(C(F)(F)F)cc3)cc2C)C1=O (centres unmarked) [7-005]
Alopecurus myosuroides
  Herbicidal effect grade, J: Alopecurus myosuroides: 0 (Herbicidal ratio of 5% or lower (almost no effect))
Leptochloa chinensis
  herbicidal effect on D (Leptochloa chinensis), grade 0-5: 5 (Herbicidal ratio of 90% or more (almost completely withered))
rapeseed
  Effect on crop grade, g: rapeseed: 0 (Herbicidal ratio of 5% or lower (almost no effect))

## C#CCON=C(C)CC1CC(O)=C(c2c(C)cc(C)cc2C)C1=O (centres unmarked) [1-019]
Alopecurus myosuroides
  J (Alopecurus myosuroides) herbicidal effect grade: 5 (Herbicidal ratio of 90% or more (almost completely withered))
Leptochloa chinensis
  herbicidal effect on D (Leptochloa chinensis), grade 0-5: 5 (Herbicidal ratio of 90% or more (almost completely withered))
rapeseed
  g (rapeseed) effect on crop grade: 4 (Herbicidal ratio of 70% or higher and lower than 90%)

## CON=C(C)CC1CC(OC(=O)SC(C)(C)C)=C(c2c(C)cc(-c3ccc(Cl)cc3)cc2C)C1=O (centres unmarked) [6-082]
Alopecurus myosuroides
  J: Alopecurus myosuroides, herbicidal effect grade: 5 (Herbicidal ratio of 90% or more (almost completely withered))
Leptochloa chinensis
  herbicidal effect on D (Leptochloa chinensis), grade 0-5: 5 (Herbicidal ratio of 90% or more (almost completely withered))
rapeseed
  g: rapeseed, effect on crop grade: 0 (Herbicidal ratio of 5% or lower (almost no effect))

## C=CCON=C(C)CC1CC(O)=C(c2c(C)cc(C)cc2C)C1=O (centres unmarked) [1-018]
Alopecurus myosuroides
  J (Alopecurus myosuroides) herbicidal effect grade: 5 (Herbicidal ratio of 90% or more (almost completely withered))
Leptochloa chinensis
  herbicidal effect on D (Leptochloa chinensis), grade 0-5: 5 (Herbicidal ratio of 90% or more (almost completely withered))
rapeseed
  g (rapeseed) effect on crop grade: 4 (Herbicidal ratio of 70% or higher and lower than 90%)

## CON=C(C)CC1CC(OC(=O)N2CCOCC2)=C(c2c(C)cc(-c3ccc(Cl)cc3)cc2OC)C1=O (centres unmarked) [6-078, 2-(4′-chloro-3-methoxy-5-methyl-[1,1′-biphenyl]-4-yl)-4-{2-(methoxyimino)propyl}-3-oxocyclopent-1-ene-1-yl morpholine-4-carboxylate]
Alopecurus myosuroides
  J: Alopecurus myosuroides, herbicidal effect grade: 0 (Herbicidal ratio of 5% or lower (almost no effect))
Leptochloa chinensis
  herbicidal effect on D (Leptochloa chinensis), grade 0-5: 5 (Herbicidal ratio of 90% or more (almost completely withered))
rapeseed
  g: rapeseed, effect on crop grade: 0 (Herbicidal ratio of 5% or lower (almost no effect))

## CON=C(C)CC1CC(O)=C(c2c(OC)cc(C)cc2OC)C1=O (centres unmarked) [6-103]
Alopecurus myosuroides
  Herbicidal effect grade, J: Alopecurus myosuroides: 5 (Herbicidal ratio of 90% or more (almost completely withered))
other
  melting point: 171 to 175 °C
Leptochloa chinensis
  herbicidal effect on D (Leptochloa chinensis), grade 0-5: 5 (Herbicidal ratio of 90% or more (almost completely withered))
rapeseed
  Effect on crop grade, g: rapeseed: 0 (Herbicidal ratio of 5% or lower (almost no effect))

## CON=C(C)CC1CC(O)=C(c2c(C)cc(-n3cncn3)cc2C)C1=O (centres unmarked) [6-074]
Alopecurus myosuroides
  J: Alopecurus myosuroides, herbicidal effect grade: 0 (Herbicidal ratio of 5% or lower (almost no effect))
Leptochloa chinensis
  herbicidal effect on D (Leptochloa chinensis), grade 0-5: 5 (Herbicidal ratio of 90% or more (almost completely withered))
rapeseed
  g: rapeseed, effect on crop grade: 0 (Herbicidal ratio of 5% or lower (almost no effect))

## CC#Cc1cc(C)c(C2=C(O)CC(CC(C)=O)C2=O)c(C)c1 (centres unmarked) [7-010]
Alopecurus myosuroides
  Herbicidal effect grade, J: Alopecurus myosuroides: 5 (Herbicidal ratio of 90% or more (almost completely withered))
Leptochloa chinensis
  herbicidal effect on D (Leptochloa chinensis), grade 0-5: 5 (Herbicidal ratio of 90% or more (almost completely withered))
rapeseed
  Effect on crop grade, g: rapeseed: 3 (Herbicidal ratio of 40% or higher and lower than 70%)
